Assay results taken from patent US10227347B2, “Purinyl-N-hydroxyl pyrimidine formamide derivative, preparation methods and uses thereof” (Guizhou Bailing Group Pharmaceutical CO., LTD., priority 2015, dated 2019).
Like-named read-outs stand apart in the source and are kept apart here.

Tests used:
[1] = test system: hct116 cells (colon cancer); assay: Cell proliferation inhibition, hct116 (MTT); type: cell-based; settings: Homo sapiens, HCT-116
Procedure: (§1) The tumor cell lines are purchased from American Type Culture Collection (ATCC) and cultivated to the status of logarithmic growth as per the cultural method recommended by ATCC. The cells in logarithmic phase are spread on a 96 well plate as per 2000-3000/well; as for anchorage-dependent cells, the compound should be added in the test wells at certain concentration for incubation for 96 h after cell adherence. Determining cell proliferation activities with method MTT for tumor cells representing solid tumor model and with method cck-8 for tumor cells representing hematologic tumor model, and analyzing the result data with the software GraphPad Prism.
(§2) Calculating the value of IC50 as per the formula: Y=background data+(top data−background data)/(1+10^((Log IC50−X)*rate of curve)). Where, Y refers to the inhibition ratio (%) and X refers to the compound concentration.

[2] = test system: MV4-11 cells (acute myeloid leukemia); assay: Cell proliferation inhibition, MV4-11 (cck-8); type: cell-based; settings: Homo sapiens
Procedure: as §1, §2

[3] = test system: A2780s cells (ovarian cancer); assay: Cell proliferation inhibition, A2780s (MTT); type: cell-based; settings: Homo sapiens
Procedure: as §1, §2

[4] = target: T1, PI3Kα (Homo sapiens, UniProt P42336); assay: PI3Kα activity inhibition (Kinase-Glo); type: biochemical; settings: Table 1, graded; read-out: PI3Kα IC50
T1 construct: purchased Invitrogen PV4788
T1 sequence (P42336 whole entry, species assumed): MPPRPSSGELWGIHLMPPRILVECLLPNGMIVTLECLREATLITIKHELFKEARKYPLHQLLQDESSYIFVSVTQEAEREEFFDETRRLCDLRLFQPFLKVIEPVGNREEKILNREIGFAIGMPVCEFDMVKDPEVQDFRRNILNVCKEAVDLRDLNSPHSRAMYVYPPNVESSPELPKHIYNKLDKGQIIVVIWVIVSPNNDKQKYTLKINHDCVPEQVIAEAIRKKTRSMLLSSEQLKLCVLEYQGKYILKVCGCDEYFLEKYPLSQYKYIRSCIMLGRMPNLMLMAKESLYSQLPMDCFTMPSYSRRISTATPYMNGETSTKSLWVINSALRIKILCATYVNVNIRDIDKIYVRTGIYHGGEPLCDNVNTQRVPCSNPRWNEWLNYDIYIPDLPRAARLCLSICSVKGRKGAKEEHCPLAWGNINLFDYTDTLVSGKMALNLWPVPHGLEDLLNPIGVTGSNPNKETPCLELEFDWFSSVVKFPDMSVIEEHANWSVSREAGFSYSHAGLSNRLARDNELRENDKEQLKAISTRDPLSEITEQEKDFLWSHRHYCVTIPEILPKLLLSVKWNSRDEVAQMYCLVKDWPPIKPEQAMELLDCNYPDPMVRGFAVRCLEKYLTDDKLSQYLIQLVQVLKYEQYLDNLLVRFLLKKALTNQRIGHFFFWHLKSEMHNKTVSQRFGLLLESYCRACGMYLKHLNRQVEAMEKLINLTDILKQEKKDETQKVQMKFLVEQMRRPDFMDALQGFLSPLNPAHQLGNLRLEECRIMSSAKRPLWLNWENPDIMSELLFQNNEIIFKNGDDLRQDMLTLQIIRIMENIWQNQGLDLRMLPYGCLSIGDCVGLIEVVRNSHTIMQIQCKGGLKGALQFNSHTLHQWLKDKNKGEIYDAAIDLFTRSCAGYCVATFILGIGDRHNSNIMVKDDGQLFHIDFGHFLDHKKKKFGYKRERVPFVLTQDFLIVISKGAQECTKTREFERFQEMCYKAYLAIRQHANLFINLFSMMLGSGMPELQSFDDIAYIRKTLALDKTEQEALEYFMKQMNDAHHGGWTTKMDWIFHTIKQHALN
T1 sequence (P27986 whole entry partner, species assumed): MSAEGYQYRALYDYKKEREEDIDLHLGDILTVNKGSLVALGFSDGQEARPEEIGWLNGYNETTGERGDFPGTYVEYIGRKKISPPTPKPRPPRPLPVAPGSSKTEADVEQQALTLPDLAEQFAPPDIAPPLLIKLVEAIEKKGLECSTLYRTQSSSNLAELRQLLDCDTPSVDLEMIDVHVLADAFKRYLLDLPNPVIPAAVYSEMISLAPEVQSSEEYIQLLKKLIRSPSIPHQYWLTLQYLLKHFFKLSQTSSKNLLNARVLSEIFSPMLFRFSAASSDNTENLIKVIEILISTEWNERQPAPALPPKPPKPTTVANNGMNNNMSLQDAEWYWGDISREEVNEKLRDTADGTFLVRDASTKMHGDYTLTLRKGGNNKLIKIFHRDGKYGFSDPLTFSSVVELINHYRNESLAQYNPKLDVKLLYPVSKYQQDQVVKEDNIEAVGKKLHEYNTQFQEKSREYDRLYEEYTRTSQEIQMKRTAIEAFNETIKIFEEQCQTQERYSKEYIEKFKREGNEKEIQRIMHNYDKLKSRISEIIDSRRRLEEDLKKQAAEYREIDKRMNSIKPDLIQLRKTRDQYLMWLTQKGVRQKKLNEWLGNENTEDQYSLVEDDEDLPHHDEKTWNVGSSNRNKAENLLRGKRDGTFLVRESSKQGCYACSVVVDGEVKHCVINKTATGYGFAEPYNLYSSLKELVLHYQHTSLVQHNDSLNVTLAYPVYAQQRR
Procedure: Detecting the inhibition capability of the compound to PI3Kα and PI3Kδ activities with Kinase-Glo (purchased from Promege Company; Catalog No.: V3771). […] The reaction system also comprises substrates as PIP2 (4, 5-diphosphoinositide, purchased from Life Technologies Company) and ATP (triphosadenine, purchased from Sigma Company). The reaction buffer system comprises 50 mM HEPES (4-hydroxyethylpiperazine ethane sulfonic acid), 3 mM MgCl2, 1 mM EGTA (ethylene glycol bis(2-amino ethylether)quadrol), 100 mM NaCl, 0.03% CHAPS (3-[3-(cholamidopropyl)dimethylamino]-1-propanesulfonic acid), 2 mM DTT (dithiothreitol). The pH value of the reaction buffer is 7.5. […] Mixing the system evenly for incubation under ambient temperature (for 1 h in PI3Kα test and for 2 h in PI3Kδ test). After incubation, adding 10 μL Kinase-Glo which has been preheated to ambient temperature into each reaction well to terminate the reaction; shaking it in dark place for 15 min after it is mixed evenly, then measuring the fluorescence intensity with a microplate reader and analyzing the result data with the software GraphPad Prism.
(§3) Calculating the value of IC50 as per the formula: Y=background data+(top data−background data)/(1+10^((Log IC50−X)*rate of curve))
Where, Y refers to the inhibition ratio (%) and X refers to the compound concentration.

[5] = target: T2, HDAC1 (Homo sapiens, UniProt Q13547); assay: In vitro HDAC1 enzymatic activity inhibition (Lys-Ac-AMC substrate); type: biochemical
T2 construct: purchased BPS Bioscience
T2 sequence (Q13547 whole entry, species assumed): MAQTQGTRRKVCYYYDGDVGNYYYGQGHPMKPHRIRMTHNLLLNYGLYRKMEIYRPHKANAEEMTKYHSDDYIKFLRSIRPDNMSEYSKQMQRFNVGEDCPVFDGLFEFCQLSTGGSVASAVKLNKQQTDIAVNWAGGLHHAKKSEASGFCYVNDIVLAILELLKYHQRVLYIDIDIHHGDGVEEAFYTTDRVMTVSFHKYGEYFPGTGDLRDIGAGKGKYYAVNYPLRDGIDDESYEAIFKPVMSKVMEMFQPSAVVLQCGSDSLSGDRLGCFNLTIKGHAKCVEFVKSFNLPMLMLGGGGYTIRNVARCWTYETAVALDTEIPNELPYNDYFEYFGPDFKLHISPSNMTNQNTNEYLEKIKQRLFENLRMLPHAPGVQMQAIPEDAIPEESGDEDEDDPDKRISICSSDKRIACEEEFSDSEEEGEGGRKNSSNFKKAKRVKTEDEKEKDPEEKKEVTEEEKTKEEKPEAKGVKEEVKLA
Procedure: Determining the inhibition capability to HDAC activity through the substrate method of fluorophore 4-amino-7-coumarin coupled Ac-peptide (Lys-Ac-AMC). HDAC1 protein is purchased from BPS Bioscience Company; the reaction buffer system is a modified tris(hydroxymethyl)aminomethane (TRIS) buffer (pH7.0). All small molecule compounds are prepared and dissolved by 100% DMSO (dimethyl sulfoxide). HDAC is prepared into the buffer as per certain concentration to be served as the enzyme solution; trypsin and the fluorophore 4-amino-7-coumarin coupled Ac-peptide substrate are prepared into the buffer as per certain concentration to be served as the substrate solution. Adding the compound into the reaction wells of the 384 well plate at the designed concentration, then adding 15 μL HDAC solution into the reaction wells (adding 15 μL blank buffer into the control well 0) for incubation under ambient temperature for 15 min; then adding 10 μL substrate solution to start reaction; during the reaction, the final concentration of HDAC1 protein is 6 nM, trypsin 0.05 μM and Ac-peptide 8 μM.
as §3
Where, Y refers to the inhibition ratio (%) and X refers to the compound concentration. […]
Analyzing the result data with the software GraphPad Prism and calculating the value of IC50 as per the formula: Y=background data+(top data−background data)/(1+10^((Log IC50−X)*rate of curve)). Where, Y refers to the inhibition ratio (%) and X refers to the compound concentration.

[6] = 96 h incubation, read-out: Proliferation IC50, Colon cancer hct116
[7] = 96 h incubation, read-out: Proliferation IC50, Acute myeloid leukemia MV4-11
[8] = 96 h incubation, read-out: Proliferation IC50, Ovarian cancer A2780s
[9] = Table 1, graded, read-out: HDAC1 IC50
[10] = read-out: IC50 to proliferation of hct116 cells
[11] = read-out: IC50 to proliferation of MV4-11 cells
[12] = read-out: inhibition value IC50 to the activity of HDAC1

Compound | IC50 [4] [nM] | IC50 [5, 9] [nM] | other results
COc1cc(-c2nc(N3CCOCC3)c3nc(CN(C)c4ncc(C(=O)NO)cn4)n(C)c3n2)cc(OC)c1OC [CLJ-35, 2-(((2-(3,4,5-trimetoxyphenyl)-9-methyl-6-morpholine-9H-purine-8-yl))methyl(methyl)amino)-N-hydroxyl pyrimidine-5-formamide] | > 10000 | < 100 | IC50 [1, 6]: 10 to 100 nM; IC50 [2, 7]: 0.1 to 10 nM; IC50 [3, 8]: 10 to 100 nM
CN(C)CCn1cc(-c2nc(N3CCOCC3)c3nc(CN(C)c4ncc(C(=O)NO)cn4)n(C)c3n2)cn1 [CLJ-25] | 1000 to 10000 | < 100 | IC50 [1, 6]: 0.1 to 10 nM; IC50 [1, 10]: 0.1 to 10 nM; IC50 [2, 7]: 0.1 to 10 nM; IC50 [2, 11]: 0.1 to 10 nM; IC50 [3, 8]: 0.1 to 10 nM; IC50 ([3]; read-out: IC50 to proliferation of A2780s cells): 0.1 to 10 nM
COc1ccc(-c2nc(N3CCOCC3)c3nc(CN(C)c4ncc(C(=O)NO)cn4)n(C4CCCC4)c3n2)cn1 [CLJ-4, 2-(((9-cyclopentyl-2-(6-methoxyl-3-pyridyl)-6-morpholino-9H-purine-8-yl))methyl(methyl)amino)-N-hydroxyl pyrimidine-5-formamide] | 1000 to 10000 | < 100 | IC50 [1, 6]: > 1000 nM; IC50 [2, 7]: > 1000 nM; IC50 [3, 8]: > 1000 nM
COc1ccc(-c2nc(N3CCOCC3)c3nc(CN(C)c4ncc(C(=O)NO)cn4)n(C(C)C)c3n2)cn1 [CLJ-3, 2-(((9-isopropyl-2-(6-methoxyl-3-pyridyl)-6-morpholino-9H-purine-8-yl))methyl(methyl)amino)-N-hydroxyl pyrimidine-5-formamide] | 1000 to 10000 | < 100 | IC50 [1, 6]: > 1000 nM; IC50 [2, 7]: > 1000 nM; IC50 [3, 8]: > 1000 nM
CN(Cc1nc2c(N3CCOCC3)nc(-c3ccc(N)nc3)nc2n1C)c1ncc(C(=O)NO)cn1 [CLJ-7, 2-(((2-(p-amino-3-pyridyl)-9-methyl-6-morpholine-9H-purine-8-yl))methyl(methyl)amino)-N-hydroxyl pyrimidine-5-formamide] | > 10000 | < 100 | IC50 [1, 6]: 100 to 1000 nM; IC50 [1, 10]: > 100 nM; IC50 [2, 7]: 0.1 to 10 nM; IC50 [2, 11]: < 10 nM; IC50 [3, 8]: 10 to 100 nM
Nc1cc(F)ccc1NC(=O)c1ccc(CNC(=O)/C=C/c2cccnc2)cc1 [Chidamide, chidamide, reference compound] | – | – | IC50 [1, 6]: > 1000 nM; IC50 [2, 7]: 100 to 1000 nM; IC50 [3, 8]: > 1000 nM
CN(Cc1nc2c(N3CCOCC3)nc(-c3cccc(NS(=O)(=O)CCCl)c3)nc2n1C)c1ncc(C(=O)NO)cn1 [CLJ-50, 2-(((2-(3-(2-chloroethylsulfonamide)phenyl)-9-methyl-6-morpholine-9H-purine-8-yl))methyl(methyl)amino)-N-hydroxyl pyrimidine-5-formamide] | > 10000 | – | IC50 [5]: < 100 nM
CN(Cc1nc2c(N3CCOCC3)nc(-c3cccc(C(N)=O)c3)nc2n1C)c1ncc(C(=O)NO)cn1 [CLJ-64, 2-(((2-(3-carbamoylphenyl)-9-methyl-6-morpholine-9H-purine-8-yl))methyl(methyl)amino)-N-hydroxyl pyrimidine-5-formamide] | > 10000 | < 100 | –
CN(Cc1nc2c(N3CCOCC3)nc(-c3ccc(NS(=O)(=O)CCCCl)cc3)nc2n1C)c1ncc(C(=O)NO)cn1 [CLJ-51] | > 10000 | < 100 | –
COc1ccc(-c2nc(N3CCOCC3)c3nc(CNc4ncc(C(=O)NO)cn4)n(C)c3n2)cc1 [CLJ-34, N-hydroxy-2-(((2-(4-methoxyphenyl)-9-methyl-6-morpholine-9H-purine-8-yl)methyl)amino)pyrimidine-5-formamide] | > 10000 | < 100 | –
CN(Cc1nc2c(N3CCOCC3)nc(-c3cccc(CO)c3)nc2n1C)c1ncc(C(=O)NO)cn1 [CLJ-40, 2-(((2-(3-(hydroxymethyl)phenyl)-9-methyl-6-morpholine-9H-purine-8-yl))methyl(methyl)amino)-N-hydroxyl pyrimidine-5-formamide] | > 10000 | < 100 | –
CN(Cc1nc2c(N3CCOCC3)nc(-c3ccc4c(c3)OCCO4)nc2n1C)c1ncc(C(=O)NO)cn1 [CLJ-37, 2-(((2-(benzo[d][1.4]dioxyheterocyclic hexylene-6-yl)-9-methyl-6-morpholine-9H-purine-8-yl))methyl(methyl)amino)-N-hydroxyl pyrimidine-5-formamide] | > 10000 | < 1 | IC50 [5, 12]: < 1 nM
2-(((2-(4-((2-hydroxycaproyl)sulfydryl)phenyl)-9-methyl-6-morpholine-9H-purine-8-yl))methyl(methyl)amino)-N-hydroxyl pyrimidine-5-formamide [CLJ-42] | > 10000 | < 100 | –
CCCc1ccc(-c2nc(N3CCOCC3)c3nc(CN(C)c4ncc(C(=O)NO)cn4)n(C)c3n2)cc1 [CLJ-62, 2-(((2-(4-propylphenyl)-9-methyl-6-morpholine-9H-purine-8-yl))methyl(methyl)amino)-N-hydroxyl pyrimidine-5-formamide] | > 10000 | < 100 | –
CCCCn1c(CN(C)c2ncc(C(=O)NO)cn2)nc2c(N3CCOCC3)nc(-c3ccc(OC)cc3)nc21 [CLJ-33, N-hydroxy-2-(((2-(4-methoxyphenyl)-6-morpholino-9-butyl-9H-purine-8-yl)methyl)(methyl)amino)pyrimidine-5-formamide] | > 10000 | 100 to 1000 | –
CN(C)c1ccc(-c2nc(N3CCOCC3)c3nc(CN(C)c4ncc(C(=O)NO)cn4)n(C)c3n2)cc1 [CLJ-46] | > 10000 | < 1 | IC50 [5, 12]: < 1 nM
2-(((2-(2-(3-(1-hydroxyethyl)2-phenyl)-9-methyl-6-morpholine-9H-purine-8-yl))methyl(methyl)amino)-N-hydroxyl pyrimidine-5-formamide [CLJ-39] | > 10000 | < 100 | –
CN(Cc1nc2c(N3CCOCC3)nc(-c3ccco3)nc2n1C)c1ncc(C(=O)NO)cn1 [CLJ-26, 2-(((2-(2-furyl)-9-methyl-6-morpholine-9H-purine-8-yl))methyl(methyl)amino)-N-hydroxyl pyrimidine-5-formamide] | > 10000 | < 1 | IC50 [5, 12]: < 1 nM
CN(Cc1nc2c(N3CCOCC3)nc(-c3cccc(C(=O)N4CCN(CO)CC4)c3)nc2n1C)c1ncc(C(=O)NO)cn1 [CLJ-66, 2-(((2-(3-(4-(hydroxymethyl)piperazine-1-carbonyl)phenyl)-9-methyl-6-morpholine-9H-purine-8-yl))methyl(methyl)amino)-N-hydroxyl pyrimidine-5-formamide] | > 10000 | < 100 | –
CN(Cc1nc2c(N3CCOCC3)nc(-c3ccccc3NS(C)(=O)=O)nc2n1C)c1ncc(C(=O)NO)cn1 [CLJ-53] | > 10000 | < 100 | –
CN(Cc1nc2c(N3CCOCC3)nc(-c3ccc(NC(=O)OC(C)(C)C)cc3)nc2n1C)c1ncc(C(=O)NO)cn1 [CLJ-52] | > 10000 | < 100 | –
CCCCN(Cc1nc2c(N3CCOCC3)nc(-c3ccc(NC)cc3)nc2n1C)c1ncc(C(=O)NO)cn1 [CLJ-47, N-hydroxy-2-(((2-(4-methylaminophenyl)-9-methyl-6-morpholine-9H-purine-8-yl)methyl)(butyl)amino)pyrimidine-5-formamide] | > 10000 | 1000 to 10000 | –
